Laboratory results published in patent US11179348B2, “Combination comprising pterostilbene for the treatment of cancer” (FUNDACIÓN UNIVERSIDAD CATÓLICA DE VALENCIA SAN VICENTE …, priority 2015, dated 2021).
Marks after values point to notes of the source that are not given here.

Columns and labels:
[1] = tested on: A549 lung adenocarcinoma; assay: In vivo growth of A549 lung cancer xenografts; set-up: species or system human; conditions: A549, day 35
[2] = tested on: glucocorticoid receptors (GR); assay: GR content of human cancer cells by [3H]-labeled ligand whole-cell binding assay
[3] = Hematology, clinical chemistry and urinary balance in tumor-bearing mice treated with Pter; format: in vivo; conditions: Pter 30 mg/kg i.v.

COc1cc(/C=C/c2ccc(O)cc2)cc(OC)c1 [Pter, trans-3,5-dimethoxy-4′-hydroxystilbene]
Tumor vol. [1]: 223 ± 88* mm^3
GR number ([2]; A549, day 35): 41 ± 10 10^3 GR/cell
GR number (binding sites/cell) ([2]; A2058-RFP tumors, day 35): 71 ± 5 10^3 GR/cell
GR number (binding sites/cell) ([2]; AsPC-1-RFP tumors, day 28): 63 ± 10 10^3 GR/cell
GR number (binding sites/cell) ([2]; BxPC-3-RFP tumors, day 35): 115 ± 27 10^3 GR/cell
GR number ([2]; Caco-2, day 28): 7 ± 2 10^3 GR/cell
GR number ([2]; HT-29, day 21): 14 ± 3 10^3 GR/cell
GR number ([2]; HepG2, day 35): 45 ± 11 10^3 GR/cell
GR number ([2]; LNCaP, day 49): 3 ± 1 10^3 GR/cell
GR number ([2]; MCF-7, day 28): <1 10^3 GR/cell
GR number ([2]; MDA-MB-231, day 35): 18 ± 3 10^3 GR/cell
GR number (binding sites/cell) ([2]; MeWo-RFP tumors, day 35): 45 ± 6 10^3 GR/cell
GR number (binding sites/cell) ([2]; MelJuso-RFP tumors, day 35): 47 ± 4 10^3 GR/cell
GR number ([2]; PC-3, day 21): 21 ± 6 10^3 GR/cell
GR number ([2]; SK-OV-3, day 49): 25 ± 7 10^3 GR/cell
% CD3 ([3]; A2058-bearing mice, day 35): 1.2 ± 0.2%
Alanine aminotransferase ([3]; A2058-bearing mice, day 35): 7.0 ± 1.6 IU/L
Albumin ([3]; A2058-bearing mice, day 35): 2.9 ± 0.6 g/dL
Alkaline phosphatase ([3]; A2058-bearing mice, day 35): 140 ± 21 IU/L
Aspartate aminotransferase ([3]; A2058-bearing mice, day 35): 140 ± 27 IU/L
B cells ([3]; A2058-bearing mice, day 35): 63.4 ± 7.7
Basophils ([3]; A2058-bearing mice, day 35): 0.0 ± 0.0 10^3/μL
CD4 ([3]; A2058-bearing mice, day 35): 0.9 ± 0.1
CD8 ([3]; A2058-bearing mice, day 35): 0.4 ± 0.05
Chloride ([3]; A2058-bearing mice, day 35): 99 ± 10 mEq/L
Creatinine ([3]; A2058-bearing mice, day 35): 0.5 ± 0.1 mg/dL
Direct bilirubin ([3]; A2058-bearing mice, day 35): 0.1 ± 0.03 mg/dL
Eosinophils ([3]; A2058-bearing mice, day 35): 0.05 ± 0.02 10^3/μL
Erythrocytes ([3]; A2058-bearing mice, day 35): 7.0 ± 0.2^† 10^6/μL
GGT ([3]; A2058-bearing mice, day 35): 2.0 ± 0.5 IU/L
Glucose ([3]; A2058-bearing mice, day 35): 157 ± 19 mg/dL
Hematocrit ([3]; A2058-bearing mice, day 35): 34.4 ± 3.0%
Hemoglobin ([3]; A2058-bearing mice, day 35): 12.1 ± 0.4 g/dL
Isolated CD2^+ lymphocytes: Cell volume ([3]; A2058-bearing mice, day 35): 164 ± 15 μm^3
Isolated CD2^+ lymphocytes: GSH ([3]; A2058-bearing mice, day 35): 4.3 ± 0.5 nmol/10^6 cells
Isolated CD2^+ lymphocytes: Glucose utilization ([3]; A2058-bearing mice, day 35): 1.24 ± 0.08 µmol/g/min
Isolated CD2^+ lymphocytes: Glutamine utilization ([3]; A2058-bearing mice, day 35): 3.35 ± 0.32 µmol/g/min
Isolated hepatocytes: Cell volume ([3]; A2058-bearing mice, day 35): 2.9 ± 0.2 μL/mg dry wt.
Isolated hepatocytes: GSH ([3]; A2058-bearing mice, day 35): 4760 ± 377 nmol/g of cells
Isolated hepatocytes: Glucose utilization ([3]; A2058-bearing mice, day 35): 1.57 ± 0.12 µmol/g/min
Lactate dehydrogenase ([3]; A2058-bearing mice, day 35): 251 ± 38 IU/L
Leukocytes ([3]; A2058-bearing mice, day 35): 2.2 ± 0.4 10^3/μL
Lymphocytes ([3]; A2058-bearing mice, day 35): 1.3 ± 0.2 10^3/μL
Monocytes ([3]; A2058-bearing mice, day 35): 0.04 ± 0.02* 10^3/μL
NK ([3]; A2058-bearing mice, day 35): 4.1 ± 1.5
Neutrophils ([3]; A2058-bearing mice, day 35): 0.8 ± 0.2 10^3/μL
Plasma osmolality ([3]; A2058-bearing mice, day 35): 278 ± 15 mOsm/kg
Platelets ([3]; A2058-bearing mice, day 35): 393 ± 36 10^3/μL
Potassium ([3]; A2058-bearing mice, day 35): 7.7 ± 1.6 mEq/L
Sodium ([3]; A2058-bearing mice, day 35): 152 ± 20 mEq/L
Total bilirubin ([3]; A2058-bearing mice, day 35): 0.5 ± 0.1 mg/dL
Total protein ([3]; A2058-bearing mice, day 35): 3.9 ± 0.5 g/dL
Urea ([3]; A2058-bearing mice, day 35): 50.4 ± 3.1 mg/dL
Uric acid ([3]; A2058-bearing mice, day 35): 1.8 ± 0.4 mg/dL
Urinary balance: Bilirubin ([3]; A2058-bearing mice, day 35): Negative
Urinary balance: Erythrocytes ([3]; A2058-bearing mice, day 35): Negative
Urinary balance: GFR ([3]; A2058-bearing mice, day 35): 167 ± 30 µL/min
Urinary balance: Glucose ([3]; A2058-bearing mice, day 35): Normal
Urinary balance: Ketones ([3]; A2058-bearing mice, day 35): Negative
Urinary balance: Leukocytes ([3]; A2058-bearing mice, day 35): Negative
Urinary balance: Nitrite ([3]; A2058-bearing mice, day 35): Negative
Urinary balance: Protein ([3]; A2058-bearing mice, day 35): 0.2 g/L
Urinary balance: Urobilinogen ([3]; A2058-bearing mice, day 35): Normal
Urinary balance: pH ([3]; A2058-bearing mice, day 35): 7.7 ± 0.5
% CD3 ([3]; AsPC-1-bearing mice, day 28): 0.9 ± 0.3%
Alanine aminotransferase ([3]; AsPC-1-bearing mice, day 28): 13.2 ± 3.5 IU/L
Albumin ([3]; AsPC-1-bearing mice, day 28): 3.0 ± 0.6 g/dL
Alkaline phosphatase ([3]; AsPC-1-bearing mice, day 28): 147 ± 18 IU/L
Aspartate aminotransferase ([3]; AsPC-1-bearing mice, day 28): 166 ± 27 IU/L
B cells ([3]; AsPC-1-bearing mice, day 28): 71.4 ± 11.4
Basophils ([3]; AsPC-1-bearing mice, day 28): 0.0 ± 0.0 10^3/μL
CD4 ([3]; AsPC-1-bearing mice, day 28): 0.8 ± 0.1
CD8 ([3]; AsPC-1-bearing mice, day 28): 0.2 ± 0.1
Chloride ([3]; AsPC-1-bearing mice, day 28): 106 ± 9 mEq/L
Creatinine ([3]; AsPC-1-bearing mice, day 28): 0.5 ± 0.1 mg/dL
Direct bilirubin ([3]; AsPC-1-bearing mice, day 28): 0.1 ± 0.03 mg/dL
Eosinophils ([3]; AsPC-1-bearing mice, day 28): 0.04 ± 0.02 10^3/μL
Erythrocytes ([3]; AsPC-1-bearing mice, day 28): 6.2 ± 0.1^† 10^6/μL
GGT ([3]; AsPC-1-bearing mice, day 28): 2.3 ± 0.4 IU/L
Glucose ([3]; AsPC-1-bearing mice, day 28): 136 ± 20 mg/dL
Hematocrit ([3]; AsPC-1-bearing mice, day 28): 30.1 ± 1.5 %
Hemoglobin ([3]; AsPC-1-bearing mice, day 28): 12.0 ± 0.3 g/dL
Isolated CD2^+ lymphocytes: Cell volume ([3]; AsPC-1-bearing mice, day 28): 177 ± 14 μm^3
Isolated CD2^+ lymphocytes: GSH ([3]; AsPC-1-bearing mice, day 28): 4.2 ± 0.6 nmol/10^6 cells
Isolated CD2^+ lymphocytes: Glucose utilization ([3]; AsPC-1-bearing mice, day 28): 1.23 ± 0.15 µmol/g/min
Isolated CD2^+ lymphocytes: Glutamine utilization ([3]; AsPC-1-bearing mice, day 28): 3.40 ± 0.12 µmol/g/min
Isolated hepatocytes: Cell volume ([3]; AsPC-1-bearing mice, day 28): 3.0 ± 0.3 μL/mg dry wt.
Isolated hepatocytes: GSH ([3]; AsPC-1-bearing mice, day 28): 4420 ± 444 nmol/g of cells
Isolated hepatocytes: Glucose utilization ([3]; AsPC-1-bearing mice, day 28): 1.50 ± 0.13 µmol/g/min
Lactate dehydrogenase ([3]; AsPC-1-bearing mice, day 28): 288 ± 30 IU/L
Leukocytes ([3]; AsPC-1-bearing mice, day 28): 1.9 ± 0.3* 10^3/μL
Lymphocytes ([3]; AsPC-1-bearing mice, day 28): 1.1 ± 0.2 10^3/μL
Monocytes ([3]; AsPC-1-bearing mice, day 28): 0.05 ± 0.02 10^3/μL
NK ([3]; AsPC-1-bearing mice, day 28): 2.7 ± 1.1
Neutrophils ([3]; AsPC-1-bearing mice, day 28): 0.6 ± 0.2^† 10^3/μL
Plasma osmolality ([3]; AsPC-1-bearing mice, day 28): 278 ± 16 mOsm/kg
Platelets ([3]; AsPC-1-bearing mice, day 28): 312 ± 55^† 10^3/μL
Potassium ([3]; AsPC-1-bearing mice, day 28): 8.9 ± 1.7 mEq/L
Sodium ([3]; AsPC-1-bearing mice, day 28): 149 ± 14 mEq/L
Total bilirubin ([3]; AsPC-1-bearing mice, day 28): 0.5 ± 0.1 mg/dL
Total protein ([3]; AsPC-1-bearing mice, day 28): 3.5 ± 0.5 g/dL
Urea ([3]; AsPC-1-bearing mice, day 28): 52.4 ± 5.7 mg/dL
Uric acid ([3]; AsPC-1-bearing mice, day 28): 1.6 ± 0.3 mg/dL
Urinary balance: Bilirubin ([3]; AsPC-1-bearing mice, day 28): Negative
Urinary balance: Erythrocytes ([3]; AsPC-1-bearing mice, day 28): Negative
Urinary balance: GFR ([3]; AsPC-1-bearing mice, day 28): 186 ± 17 µL/min
Urinary balance: Glucose ([3]; AsPC-1-bearing mice, day 28): Normal
Urinary balance: Ketones ([3]; AsPC-1-bearing mice, day 28): Negative
Urinary balance: Leukocytes ([3]; AsPC-1-bearing mice, day 28): Negative
Urinary balance: Nitrite ([3]; AsPC-1-bearing mice, day 28): Negative
Urinary balance: Protein ([3]; AsPC-1-bearing mice, day 28): 0.3 g/L
Urinary balance: Urobilinogen ([3]; AsPC-1-bearing mice, day 28): Normal
Urinary balance: pH ([3]; AsPC-1-bearing mice, day 28): 7.7 ± 0.4
